{"source": "patent US20240408145A1", "about": "“Gene Therapy” (Ospedale San Raffaele S.r.l., priority 2021, published 2024)", "molecules": {"B1": {"name": "GSE56: mRNA encoding for a dominant negative p53 truncated form (GSE56), co-electroporated; SEQ ID No. 8 and 9 (nucleic acid)", "sense": "ATGGATGGATGGTGTCCTGGGAGAGACCGTCGGACAGAGGAAGAAAATTTCCGCAAAAAAGAAGAGCATTGCCCGGAGCTGCCCCCAGGGAGTGCAAAGAGAGCACTGCCCACCAGCACAAGCTCCTCTCCCCAGCAAAAGAAAAAACCACTCGATGGAGAATATTTCACCCTTAAGATCCGTGGGCGTGAGCGCTTCGAGATGTTCCGAGAGCTGAATGAGGCCTTGGAATTAAAGGATGCCCGTGCTGCCGAGGAGTCAGGAGACAGCAGGGCTCACTCCAGCTACCCGAAGATAGTTAGTTAG"}}, "key": {"[1]": {"conditions": "cited from earlier work"}, "JNK1, 2 and 3": {"tested_on": "JNK1, 2 and 3", "conditions": "cited from earlier work"}, "human CD34+ HSPCs [2]": {"tested_on": "human CD34+ HSPCs", "assay": "HDR gene editing efficiency in HSPCs (ddPCR, GFP flow cytometry)", "assay_type": "cell-based"}, "[3]": {"tested_on": "human recombinant MEK1, MKK4, IKKα, PKCα, Src, Syc and PDGFα", "conditions": "at concentrations less than 30 μM; cited from earlier work"}, "Mv1Lu cells": {"tested_on": "Mv1Lu cells", "conditions": "read-out: IC50, TGFβ-induced AP-1 activation; cited from earlier work"}, "JNK [4]": {"tested_on": "JNK", "conditions": "cited from earlier work"}, "JNK [5]": {"target": "T1, JNK", "T1 construct": "IC50; Ki", "conditions": "cited from earlier work"}, "DYRK1a": {"target": "DYRK1a (Homo sapiens, UniProt Q13627)", "conditions": "cited from earlier work"}, "HIPK2": {"target": "HIPK2 (Homo sapiens, UniProt Q9H2X6)", "sequence (Q9H2X6 whole entry, species assumed)": "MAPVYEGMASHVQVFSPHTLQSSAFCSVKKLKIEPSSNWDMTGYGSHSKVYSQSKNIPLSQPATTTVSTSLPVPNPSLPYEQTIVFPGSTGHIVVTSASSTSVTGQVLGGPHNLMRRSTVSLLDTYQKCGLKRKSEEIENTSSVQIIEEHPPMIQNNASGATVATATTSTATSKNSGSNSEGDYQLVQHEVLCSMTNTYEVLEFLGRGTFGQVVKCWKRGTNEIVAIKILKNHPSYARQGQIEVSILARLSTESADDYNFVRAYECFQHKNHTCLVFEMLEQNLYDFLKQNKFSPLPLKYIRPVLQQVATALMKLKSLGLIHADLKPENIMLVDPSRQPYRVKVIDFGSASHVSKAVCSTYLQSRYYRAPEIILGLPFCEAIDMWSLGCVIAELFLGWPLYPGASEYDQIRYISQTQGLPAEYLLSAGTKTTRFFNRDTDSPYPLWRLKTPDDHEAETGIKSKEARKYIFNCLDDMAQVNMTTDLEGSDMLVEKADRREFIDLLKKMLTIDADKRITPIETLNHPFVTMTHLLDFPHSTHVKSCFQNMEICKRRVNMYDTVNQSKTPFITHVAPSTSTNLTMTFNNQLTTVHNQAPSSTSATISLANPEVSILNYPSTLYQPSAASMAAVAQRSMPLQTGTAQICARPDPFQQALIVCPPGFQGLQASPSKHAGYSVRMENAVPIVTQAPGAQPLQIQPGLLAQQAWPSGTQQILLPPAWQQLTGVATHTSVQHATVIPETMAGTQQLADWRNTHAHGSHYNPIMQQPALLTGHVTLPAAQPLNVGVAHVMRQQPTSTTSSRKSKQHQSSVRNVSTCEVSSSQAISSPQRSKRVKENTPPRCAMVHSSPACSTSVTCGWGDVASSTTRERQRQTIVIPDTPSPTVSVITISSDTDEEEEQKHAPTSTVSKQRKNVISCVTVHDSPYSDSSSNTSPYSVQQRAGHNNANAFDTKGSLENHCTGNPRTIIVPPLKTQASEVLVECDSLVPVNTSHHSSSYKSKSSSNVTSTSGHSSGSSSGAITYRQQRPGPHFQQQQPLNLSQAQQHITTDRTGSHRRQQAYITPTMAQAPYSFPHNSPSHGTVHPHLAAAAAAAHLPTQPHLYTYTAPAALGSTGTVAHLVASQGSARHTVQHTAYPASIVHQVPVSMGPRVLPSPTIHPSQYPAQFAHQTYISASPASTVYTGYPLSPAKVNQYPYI", "conditions": "cited from earlier work"}, "PIM1": {"target": "PIM1 (Homo sapiens, UniProt P11309)", "sequence (P11309 whole entry, species assumed)": "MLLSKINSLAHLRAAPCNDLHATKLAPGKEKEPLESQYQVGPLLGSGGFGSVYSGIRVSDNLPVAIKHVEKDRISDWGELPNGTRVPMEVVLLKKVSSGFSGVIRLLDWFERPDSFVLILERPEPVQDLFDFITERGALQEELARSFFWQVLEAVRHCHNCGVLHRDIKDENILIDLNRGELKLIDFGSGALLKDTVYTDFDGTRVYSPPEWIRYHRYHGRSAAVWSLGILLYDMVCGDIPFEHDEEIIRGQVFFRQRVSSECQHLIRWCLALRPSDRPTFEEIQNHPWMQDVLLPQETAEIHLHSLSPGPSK", "conditions": "cited from earlier work"}, "casein kinase 2 (CK2)": {"target": "casein kinase 2 (CK2) (Homo sapiens, UniProt P68400)", "sequence (P68400 whole entry)": "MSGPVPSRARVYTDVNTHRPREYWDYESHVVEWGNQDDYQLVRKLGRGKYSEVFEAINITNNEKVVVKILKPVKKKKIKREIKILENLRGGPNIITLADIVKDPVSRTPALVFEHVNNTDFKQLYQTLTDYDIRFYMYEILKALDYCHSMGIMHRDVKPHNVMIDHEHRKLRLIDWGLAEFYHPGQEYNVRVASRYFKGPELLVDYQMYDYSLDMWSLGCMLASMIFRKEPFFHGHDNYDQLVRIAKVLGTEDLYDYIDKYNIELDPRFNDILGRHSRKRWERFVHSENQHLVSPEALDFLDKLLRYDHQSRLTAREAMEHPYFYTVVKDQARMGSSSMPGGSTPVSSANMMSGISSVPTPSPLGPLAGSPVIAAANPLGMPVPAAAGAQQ", "conditions": "cited from earlier work"}, "[6]": {"target": "extracellular-signal-regulated kinase 8 (ERK8) (Homo sapiens, UniProt Q8TD08)", "conditions": "cited from earlier work"}, "ATR [7]": {"target": "T2, ATR (Mus musculus, UniProt Q9JKK8)", "T2 construct": "endogenous in cells; host or cells: 3T3TopBP1-ER cells", "conditions": "3T3TopBP1-ER cells; cited from earlier work"}, "JNK and JIP": {"tested_on": "JNK and JIP", "conditions": "read-out: IC50, protein-protein interaction between JNK and JIP; cited from earlier work"}, "ATM kinase": {"target": "ATM kinase (Homo sapiens, UniProt Q13315)", "sequence (Q13315 whole entry)": "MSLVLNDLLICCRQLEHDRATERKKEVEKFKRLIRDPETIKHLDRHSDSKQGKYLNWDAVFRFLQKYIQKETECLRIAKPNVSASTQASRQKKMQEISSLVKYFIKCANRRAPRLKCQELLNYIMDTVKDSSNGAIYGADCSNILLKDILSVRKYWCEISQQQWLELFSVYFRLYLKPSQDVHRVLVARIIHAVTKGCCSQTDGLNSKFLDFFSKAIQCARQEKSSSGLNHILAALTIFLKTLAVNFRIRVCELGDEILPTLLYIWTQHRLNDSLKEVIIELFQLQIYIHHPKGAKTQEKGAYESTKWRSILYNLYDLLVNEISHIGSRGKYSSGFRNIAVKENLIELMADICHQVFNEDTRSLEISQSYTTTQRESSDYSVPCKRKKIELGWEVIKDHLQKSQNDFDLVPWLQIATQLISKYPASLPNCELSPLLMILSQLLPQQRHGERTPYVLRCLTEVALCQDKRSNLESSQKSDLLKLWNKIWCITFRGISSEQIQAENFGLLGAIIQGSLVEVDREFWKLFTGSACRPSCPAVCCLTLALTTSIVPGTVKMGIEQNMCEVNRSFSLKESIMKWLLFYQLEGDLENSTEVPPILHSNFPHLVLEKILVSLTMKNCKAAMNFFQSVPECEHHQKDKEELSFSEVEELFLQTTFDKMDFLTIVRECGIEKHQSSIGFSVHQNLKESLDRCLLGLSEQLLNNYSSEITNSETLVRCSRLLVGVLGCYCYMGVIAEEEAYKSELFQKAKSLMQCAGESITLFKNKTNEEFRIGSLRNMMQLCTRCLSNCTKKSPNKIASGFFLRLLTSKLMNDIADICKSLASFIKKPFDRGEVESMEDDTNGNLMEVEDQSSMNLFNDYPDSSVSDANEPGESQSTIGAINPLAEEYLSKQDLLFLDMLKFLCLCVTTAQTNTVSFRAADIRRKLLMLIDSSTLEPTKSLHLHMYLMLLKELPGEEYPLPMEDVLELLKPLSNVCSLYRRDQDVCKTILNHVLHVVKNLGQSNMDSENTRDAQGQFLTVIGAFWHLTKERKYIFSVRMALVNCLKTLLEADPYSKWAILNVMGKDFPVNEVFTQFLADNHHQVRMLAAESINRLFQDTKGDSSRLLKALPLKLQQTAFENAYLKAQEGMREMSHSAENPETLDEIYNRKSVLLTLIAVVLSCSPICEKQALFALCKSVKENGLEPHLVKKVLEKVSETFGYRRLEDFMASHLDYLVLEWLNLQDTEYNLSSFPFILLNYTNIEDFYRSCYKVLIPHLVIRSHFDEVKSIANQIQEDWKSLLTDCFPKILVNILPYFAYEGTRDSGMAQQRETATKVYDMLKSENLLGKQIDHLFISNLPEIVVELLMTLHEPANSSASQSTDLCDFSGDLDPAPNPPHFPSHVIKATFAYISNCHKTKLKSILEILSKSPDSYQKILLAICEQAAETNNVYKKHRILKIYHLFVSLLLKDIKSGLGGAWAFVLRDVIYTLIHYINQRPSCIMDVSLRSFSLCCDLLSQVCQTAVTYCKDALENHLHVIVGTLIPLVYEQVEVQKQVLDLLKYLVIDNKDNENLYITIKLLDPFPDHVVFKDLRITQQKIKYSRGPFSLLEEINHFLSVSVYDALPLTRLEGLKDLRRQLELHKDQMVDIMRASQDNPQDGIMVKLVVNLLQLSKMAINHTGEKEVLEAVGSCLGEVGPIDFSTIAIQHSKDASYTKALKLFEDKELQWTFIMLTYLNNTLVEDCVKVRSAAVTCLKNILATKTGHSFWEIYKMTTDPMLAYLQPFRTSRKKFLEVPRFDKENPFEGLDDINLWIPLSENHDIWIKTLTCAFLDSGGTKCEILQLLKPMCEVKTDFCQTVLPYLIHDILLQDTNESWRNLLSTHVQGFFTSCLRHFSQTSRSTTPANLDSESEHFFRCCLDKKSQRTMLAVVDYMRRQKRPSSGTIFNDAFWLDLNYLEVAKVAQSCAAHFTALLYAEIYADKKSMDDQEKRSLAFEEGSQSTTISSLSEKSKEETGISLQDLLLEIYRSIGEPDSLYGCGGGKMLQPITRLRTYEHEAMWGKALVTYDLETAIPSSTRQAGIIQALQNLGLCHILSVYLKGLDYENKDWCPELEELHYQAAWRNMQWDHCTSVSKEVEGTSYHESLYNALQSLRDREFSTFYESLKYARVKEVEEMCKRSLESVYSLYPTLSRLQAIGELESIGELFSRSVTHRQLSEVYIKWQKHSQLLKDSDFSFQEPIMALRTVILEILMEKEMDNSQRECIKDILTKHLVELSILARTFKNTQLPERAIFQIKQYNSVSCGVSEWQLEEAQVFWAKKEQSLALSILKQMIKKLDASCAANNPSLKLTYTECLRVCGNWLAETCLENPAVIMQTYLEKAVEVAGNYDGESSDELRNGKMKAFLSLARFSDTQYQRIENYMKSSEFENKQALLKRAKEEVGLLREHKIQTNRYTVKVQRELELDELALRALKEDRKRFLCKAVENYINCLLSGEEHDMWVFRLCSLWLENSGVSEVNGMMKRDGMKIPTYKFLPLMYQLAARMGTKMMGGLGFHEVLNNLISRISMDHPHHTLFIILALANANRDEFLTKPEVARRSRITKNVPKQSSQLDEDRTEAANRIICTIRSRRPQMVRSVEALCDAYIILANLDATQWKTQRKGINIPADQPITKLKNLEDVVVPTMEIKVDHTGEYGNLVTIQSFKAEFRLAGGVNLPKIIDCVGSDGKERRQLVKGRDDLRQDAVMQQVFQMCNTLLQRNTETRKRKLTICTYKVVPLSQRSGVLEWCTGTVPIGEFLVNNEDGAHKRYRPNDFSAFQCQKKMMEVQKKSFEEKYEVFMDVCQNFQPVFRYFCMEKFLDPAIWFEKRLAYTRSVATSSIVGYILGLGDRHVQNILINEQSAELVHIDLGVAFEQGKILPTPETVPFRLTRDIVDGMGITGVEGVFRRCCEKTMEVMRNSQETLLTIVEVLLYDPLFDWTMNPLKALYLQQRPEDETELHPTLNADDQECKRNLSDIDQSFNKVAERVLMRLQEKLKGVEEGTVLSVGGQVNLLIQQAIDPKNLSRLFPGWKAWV", "conditions": "cited from earlier work"}, "ATR [8]": {"target": "ATR (Homo sapiens, UniProt Q13535)", "conditions": "cited from earlier work"}, "c-Jun phosphorylation": {"tested_on": "c-Jun phosphorylation", "conditions": "cited from earlier work"}, "BRD4": {"target": "BRD4 (Homo sapiens, UniProt O60885)", "conditions": "cited from earlier work"}, "[9]": {"tested_on": "BM-derived human CD34+ cells", "assay": "CFU-C assay of CD34+ cells retrieved from bone marrow of primary recipients", "assay_type": "cell-based", "conditions": "15-18 weeks, inhibitor at time of ex vivo GE vs standard protocol"}, "IL1A, IL8, IL6, CCL2": {"tested_on": "IL1A, IL8, IL6, CCL2", "assay": "Inflammatory cytokine expression in edited HSPCs (qPCR)", "assay_type": "cell-based, human", "conditions": "CB HSPCs, HS/AAV6; inhibitor at time of GE vs standard protocol"}, "edited human CD34+ HSPCs": {"tested_on": "edited human CD34+ HSPCs", "assay": "CD34+ HSPC xenotransplantation in NSG mice", "assay_type": "in vivo", "conditions": "inhibitor at time of ex vivo GE (GSE56: limiting cell doses)"}, "[10]": {"tested_on": "BM-derived human CD34+ cells", "assay": "Senescence markers (p16, SA-β-Gal) in BM-derived cells of the human graft", "assay_type": "in vivo, NSG mice", "conditions": "NSG mice, endpoint 15-18 weeks; inhibitor at time of ex vivo GE"}, "IL8, CXCL10, p21, p16": {"tested_on": "IL8, CXCL10, p21, p16", "assay": "Gene expression in BM-derived HSPCs (qPCR)", "assay_type": "cell-based, human", "conditions": "18 weeks post transplantation, HS/AAV6 ± GSE56", "method": "For gene expression analyses, total RNA was extracted using either miRNeasy Micro Kit (QIAGEN) according to the manufacturer's instructions and DNase treatment was performed using RNase-free DNase Set (QIAGEN). cDNA was synthetized with iScript cDNA Synthesis Kit (Bio-Rad). cDNA was then pre-amplified using TaqMan PreAmp Master Mix (ThermoFisher) and used for q-PCR in a Viia7 Real-time PCR thermal cycler using both Fast SYBR Green Master Mix (Thermofisher), after standard curve method optimization to reach the 100% primer efficiency for each couple of primers listed in 1. The relative expression of each target gene was first normalized to GUSB housekeeping genes expression and then represented as 2^-DCt for each sample or as fold changes (2^-DDCt) relative to the indicated control conditions."}, "human CD34+ HSPCs [11]": {"tested_on": "human CD34+ HSPCs", "assay": "Colony-forming unit cell (CFU-C) assay", "assay_type": "cell-based", "conditions": "CB HSPCs, HS/AAV6; inhibitor at time of GE vs standard protocol; 24 h and 96 h post GE"}}, "note": "“Also recorded” adds a separate entry of the source. Where a name gives a salt, the structure may show the parent alone.", "data": [{"molecule": "O=c1cc(-c2cccc3c2Sc2ccccc2S3)oc(N2CCOCC2)c1", "note": "[KU-55933]", "values": [{"measurement": "solubility", "setting": "[1]", "value": "soluble in DMSO and ethanol"}]}, {"molecule": "O=C1c2ccccc2-c2n[nH]c3cccc1c23", "note": "[SP600125, Anthra[1-9-cd]pyrazol-6(2H)-one]", "values": [{"measurement": "IC50", "setting": "JNK1, 2 and 3", "value": "40 to 90", "unit": "nM"}, {"measurement": "GFP levels in HSPC subpopulations (GE efficiency)", "setting": "human CD34+ HSPCs [2]; CB HSPCs, Erk (4 μM) or Jnk (2 μM) inhibitor day 1 and 2 vs DMSO, 96 h post-editing", "value": "increase in GFP levels"}, {"measurement": "Percentage of more primitive edited cells", "setting": "human CD34+ HSPCs [2]; Jnk inhibitor 2 μM day 1 and 2", "value": "higher percentage of more primitive edited cells"}]}, {"molecule": "Nc1n[nH]c2nnc(-c3c(-c4ccccc4)nn4ccccc34)cc12", "note": "[FR180204, 5-(2-Phenyl-pyrazolo[1,5-a]pyridin-3-yl)-1H-pyrazolo[3,4-c]pyridazin-3-ylamine]", "values": [{"measurement": "activity against MEK1, MKK4, IKKα, PKCα, Src, Syc and PDGFα", "setting": "[3]", "value": "no activity"}, {"measurement": "IC50", "setting": "Mv1Lu cells", "value": 3100, "unit": "nM"}]}, {"molecule": "Cl.Cl.c1cc(OCCN2CCCCC2)cc(-c2n[nH]c3ccc(-c4ncn[nH]4)cc23)c1", "note": "[CC 401 dihydrochloride, 3-[3-[2-(1-Piperidinyl)ethoxy]phenyl]-5-(1H-1,2,4-triazol-5-yl)-1H-indazole dihydrochloride]", "values": [{"measurement": "selectivity for JNK over p38, ERK, IKK2, protein kinase C, Lck and ZAP70", "setting": "JNK [4]", "value": "> 40", "unit": "fold"}, {"measurement": "Ki", "setting": "JNK [5]", "value": "25 to 50", "unit": "nM"}]}, {"molecule": "CN(C)c1nc2c(Br)c(Br)c(Br)c(Br)c2n1CC(=O)O", "note": "[TMCB, 2-(4,5,6,7-Tetrabromo-2-(dimethylamino)-1H-benzo[d]imidazol-1-yl)acetic acid]", "values": [{"measurement": "Ki", "setting": "DYRK1a", "value": 11900, "unit": "nM"}, {"measurement": "Ki", "setting": "HIPK2", "value": 15200, "unit": "nM"}, {"measurement": "Ki", "setting": "PIM1", "value": 8650, "unit": "nM"}, {"measurement": "IC50", "setting": "casein kinase 2 (CK2)", "value": 500, "unit": "nM"}, {"measurement": "Ki", "setting": "casein kinase 2 (CK2)", "value": 250, "unit": "nM"}, {"measurement": "IC50", "setting": "[6]", "value": 500, "unit": "nM"}]}, {"molecule": "Cn1c(=O)n(-c2ccc(C(C)(C)C#N)cc2)c2c3cc(-c4cnc5ccccc5c4)ccc3ncc21", "note": "[BEZ235]", "values": [{"measurement": "IC50", "setting": "ATR [7]", "value": "~21", "unit": "nM"}]}, {"molecule": "C[S+]([O-])c1ccc(-c2nc(-c3ccncc3)c(-c3ccc(F)cc3)[nH]2)cc1", "note": "(centres unmarked) [SB 203580 hydrochloride]", "values": [{"measurement": "solubility", "setting": "[1]", "value": "water-soluble"}]}, {"molecule": "Nc1nnc(Sc2ncc([N+](=O)[O-])s2)s1", "note": "[SU 3327, 5-[(5-Nitro-2-thiazolyl)thio]-1,3,4thiadiazol-2-amine]", "values": [{"measurement": "IC50", "setting": "JNK and JIP", "value": 239, "unit": "nM"}, {"measurement": "IC50", "setting": "JNK [5]", "value": 700, "unit": "nM"}]}, {"molecule": "O=C(NC(NC(=S)Nc1ccc(F)c([N+](=O)[O-])c1)C(Cl)(Cl)Cl)C(c1ccccc1)c1ccccc1", "note": "(centres unmarked) [CGK 733]", "values": [{"measurement": "IC50", "setting": "ATM kinase", "value": "~200", "unit": "nM"}, {"measurement": "IC50", "setting": "ATR [8]", "value": "~200", "unit": "nM"}]}, {"molecule": "CCOc1nc(NC(=O)Cc2cc(OC)ccc2OC)cc(N)c1C#N", "note": "[TCS JNK 6o, N-(4-Amino-5-cyano-6-ethoxy-2-pyridinyl)-2,5-dimethoxybenzeneacetamide]", "values": [{"measurement": "EC50", "setting": "c-Jun phosphorylation", "value": 920, "unit": "nM"}]}, {"molecule": "CCOc1cc(N2CCC(O)CC2)ccc1Nc1ncc2c(n1)N(C)c1ccccc1C(=O)N2C", "note": "[XMD 8-92, 2-[[2-Ethoxy-4-(4-hydroxy-1-piperidinyl)phenyl]amino]-5,11-dihydro-5,11-dimethyl-6H-pyrimido[4,5-b][1,4]benzodiazepin-6-one]", "values": [{"measurement": "Kd", "setting": "BRD4", "value": 190, "unit": "nM"}]}, {"molecule": "B1", "values": [{"measurement": "Number of colonies formed by BM-derived CD34+ cells", "setting": "[9]", "value": "improvement of HSPC clonogenic potential upon p53 inhibition; also recorded: became higher upon p53 inhibition"}, {"measurement": "Relative expression of inflammatory cytokine genes (IL1A, IL8, IL6, CCL2)", "setting": "IL1A, IL8, IL6, CCL2", "value": "downregulation of the cytokines"}, {"measurement": "Human CD45+ engraftment in peripheral blood vs standard protocol", "setting": "edited human CD34+ HSPCs", "value": "fourfold higher engraftment than the standard protocol"}, {"measurement": "Percentage of senescent cells (p16, SA-β-Gal) in BM-derived CD34+ / HDR-edited cells of the human graft", "setting": "[10]", "value": "prevented the accumulation of the senescence marker SA-β-gal; also recorded: this reduction was observed also upon p53 inhibition"}, {"measurement": "Percentage of HDR-edited alleles (ddPCR)", "setting": "human CD34+ HSPCs [2]; CB HSPCs, AAVS1 editing (HS/AAV6), inhibitor at time of GE (Anakinra 50 ng/μl, SC514 25 μM, GSE56 mRNA, ATMi) vs standard protocol", "value": "tended to increase the percentage of HDR editing"}, {"measurement": "mRNA levels of p21, p16 and IL8 in BM-derived HSPCs", "setting": "IL8, CXCL10, p21, p16", "value": "mitigated by the administration of GSE56"}, {"measurement": "Number of colonies (HSPC clonogenic potential)", "setting": "human CD34+ HSPCs [11]", "value": "similarly increased"}]}]}
